The values below come from patent US20250234861A1, “LACTONES FOR ENHANCING THE ACTIVITY OF ANTIMICROBIAL AGENTS” (BASF SE, priority 2021, published 2025).

Each structure is given as a SMILES string.

Type in all cases: cell-based
Assay [1] concerns bacterial mix consisting of Escherichia coli DSM 1576, Alcaligenes faecalis DSM 13644, Pseudomonas aeruginosa ATCC 15442, Staphylococcus aureus ATCC 6538 …. Put plainly: Example 2.3: preservative activity of a basic composition (pH 7, 10% PG) using 1,2-benzisothiazol-3(2H)-one (BIT), bacterial challenge. The note with it: day 7. The protocol: An aqueous composition of pH 7 comprising 10% by weight of propyleneglycol (PG) as organic solvent, 0.004% by weight of 1,2-benzisothiazol-3(2H)-one (BIT) as antimicrobial and the lactone listed in the below table was tested for its preserving activity against bacterial contamination (the weight percentages relate to the total weight of the composition). For this purpose, the samples were contaminated with a bacterial mix consisting of: • Escherichia coli DSM 1576 • Alcaligenes faecalis DSM 13644 • Pseudomonas aeruginosa ATCC 15442 • Staphylococcus aureus ATCC 6538 • Burkholderia cepacia DSM 7288 • Pseudomonas putida DSM 12735
The samples were inoculated with the bacterial mix at day 0 to obtain 10E+06 to 10E+07 CFU/ml inoculation in the test sample and stored at 25° C. for 7 days.
(§1) CFU was determined at day 7.
Any CFU value at day 7 (d7) obtained with a sample according to the invention containing BIT and lactone (10% PG+0.004% BIT+x % of Lactone) that is lower than the respective value of the “comparative 2” example (10% PG+0.004% BIT) indicates a better performance.

Assay [2] shares this test system. Put plainly: Example 2.1: preservative activity in a manual dishwashing composition (MDW, pH 7.1) using 2-phenoxyethanol (PE), bacterial challenge. The note with it: for d7 CFU: day 7; for d14 CFU: day 14; for d21 CFU: day 21. How it is done: (§2) A manual dish wash detergent (MWD) of pH 7.1 containing the following components was used:
The samples were contaminated with a bacterial mix consisting of: • Escherichia coli DSM 1576 • Alcaligenes faecalis DSM 13644 • Pseudomonas aeruginosa ATCC 15442 • Staphylococcus aureus ATCC 6538 • Burkholderia cepacia DSM 7288 • Pseudomonas putida DSM 12735
The samples were inoculated with the bacterial mix at day 0 and 7 to obtain 10E+06 to 10E+07 CFU/ml inoculation in the test sample and stored at 25° C. for 21 days. CFU was determined before re-inoculation at day 7 and on days 14 and 21.
Any CFU value at day 7 (d7), day 14 (d14) or day 21 (d21) obtained with a sample according to the invention containing 2-phenoxyethanol and lactone (MDW+1.0% PE+x % Lactone) lower than the respective value of the “comparative 2” example (MDW+1.0% by weight of 2-Phenoxyethanol) indicates a better performance.

Assay [3] deals with fungal mix consisting of Aspergillus brasiliensis DSM 1988, Rhodotorula mucilaginosa DSM 13621, Yarrowialipolytica DSM 8218. Put plainly: Example 1.3: preservative activity in a manual dishwashing composition (MDW, pH 7.1) using 2-phenoxyethanol (PE), fungal challenge. As to conditions: for d7 CFU: day 7; for d14 CFU: day 14; for d21 CFU: day 21. How it is done: as §2
(§3) The samples were contaminated with a fungal mix consisting of: • Aspergillus brasiliensis DSM 1988 • Rhodotorula mucilaginosa DSM 13621 • Yarrowialipolytica DSM 8218
(§4) The samples were inoculated with the fungal mix at day 0 and 7 to obtain 1-3×10E+05 CFU/ml inoculation in the test sample consisting of the above-defined dish wash detergent MDW and stored at 25° C. for 21 days. CFU was determined before re-inoculation at day 7, and on days 14 and 21.
(§5) Any CFU value at d7, d14 or d21 obtained with a MDW sample of the invention containing 2-phenoxyethanol and lactone (MDW+1.0% PE+x % of Lactone) lower than the respective value of the “comparative 2” example (MDW+1.0% by weight of 2-Phenoxyethanol) indicates a better performance of the inventive combination of 2-phenoxyethanol with the lactone.

Assay [4] has the same test system. Put plainly: Example 1.2: preservative activity in a manual dishwashing composition (MDW, pH 7.1) using 2-phenoxyethanol (PE), fungal challenge. The note with it: for d7 CFU: day 7; for d14 CFU: day 14; for d21 CFU: day 21. How it is done:
as §2, §3, §4, §5

The test system of assay [5] is Pseudomonas aeruginosa ATCC 15442. Put plainly: Example 2.4: preservative activity of a basic composition (pH 5, 10% PG) using sodium benzoate, bacterial challenge. As to conditions: day 7. The protocol: An aqueous composition of pH 5 comprising 10% by weight of propyleneglycol (PG) as organic solvent, sodium benzoate as antimicrobial and 0.18% by weight of γ-valerolactone was tested for its preserving activity against bacterial contamination (the weight percentages relate to the total weight of the composition). For this purpose, the samples were contaminated with a bacterial suspension of Pseudomonas aeruginosa ATCC 15442.
The samples were inoculated with the bacterial suspension at day 0 to obtain 6.1×10E+07 CFU/ml inoculation in the test sample and stored at 25° C. for 7 days.
as §1
Any CFU value at day 7 (d7) obtained with a sample according to the invention containing sodium benzoate and lactone (10% PG+x % sodium benzoate+0.18% of Lactone) lower than the respective value of the “comparative 2” example (10% PG+0.5% sodium benzoate) or “comparative 3” example (10% PG+0.85% sodium benzoate) indicates a better performance.

The mark [6] stands for this setting: MDW pH 7.1 + 1.0% of the substance alone (comparative), bacterial mix inoculated day 0 and 7, 25° C.
Where [7] appears, read: MDW pH 7.1 + 1.0% of the substance alone (comparative), bacterial mix.
Where [8] appears, read: MDW pH 7.1 + 1.0% of the substance alone (comparative), fungal mix inoculated day 0 and 7, 25° C.
Setting [9] is: MDW pH 7.1 + 1.0% of the substance alone (comparative), fungal mix.
Where [10] appears, read: MDW + 1.0% PE + 1% of lactone, bacterial mix.
[11] abbreviates: MDW + 1.0% PE + 1% of lactone, fungal mix.
The mark [12] stands for this setting: MDW + 1.0% PE + 2% of lactone, fungal mix.

With `O=c1[nH]sc2ccccc12` [BIT, 1,2-benzisothiazol-3(2H)-one, reference compound], the “d7 [CFU/ml]” value in assay [1] (10% PG, pH 7 + 0.004% BIT alone (Comparative 2)) is recorded as >100,000 CFU/ml.
As for `OCCOc1ccccc1` [Phenoxyethanol (PE)], the “d7 CFU” value is listed as 625 CFU in assay [2] (setting [6]), >100,000 CFU in assay [3] (setting [8]) and 34,500 CFU in assay [4] (setting [8]). In addition, the “d14 CFU” value in assay [2] (setting [7]) was >100,000 CFU; in assay [3] (setting [9]) it was >100,000 CFU; in assay [4] (setting [8]) it was 16,500 CFU. Further, the “d21 CFU” value was >100,000 CFU in assay [2] (setting [7]), >100,000 CFU in assay [3] (setting [9]) and 3,800 CFU in assay [4] (setting [8]).
Turning to `CCCCCC1CCC(=O)O1` (centres unmarked) [Y-Nonalactone], the “d7 CFU” value in assay [2] (setting [6]) was 8,400 CFU. Also, in assay [2] (setting [7]), the “d14 CFU” value is >100,000 CFU and the “d21 CFU” value was >100,000 CFU.
For `O=C([O-])c1ccccc1.[Na+]` [sodium benzoate, reference compound], the “d7 [CFU/ml]” value is given as >100,000 CFU/ml in assay [5] (10% PG, pH 5 + 0.5% sodium benzoate alone (Comparative 2)) and >100,000 CFU/ml in assay [5] (10% PG, pH 5 + 0.85% sodium benzoate alone (Comparative 3)).
With `CCCCCCC1CCC(=O)O1` (centres unmarked) [y-Decalactone], in assay [2] (setting [10]), the “d7 CFU” value is listed as under 10 CFU, the “d14 CFU” value is under 10 CFU and the “d21 CFU” value is reported as under 10 CFU. For the same compound, in assay [2] (setting [6]), the “d7 CFU” value is >100,000 CFU. In addition, in assay [2] (setting [7]), the “d14 CFU” value is listed as >100,000 CFU and the “d21 CFU” value is >100,000 CFU.
As to `CCCCCC1CCC(=O)O1` (centres unmarked) [y-Nonalactone], in assay [2] (setting [10]), the “d7 CFU” value is recorded as under 10 CFU, the “d14 CFU” value is given as under 10 CFU and the “d21 CFU” value is under 10 CFU.
In the case of `CCCCCCC1CCC(=O)O1` (centres unmarked) [γ-Decalactone], in assay [3] (setting [11]), the “d7 CFU” value is reported as 24,500 CFU, the “d14 CFU” value is 13,000 CFU and the “d21 CFU” value is reported as 1200 CFU. The “d7 CFU” value in assay [3] (setting [8]) is >100,000 CFU. Further, in assay [3] (setting [9]), the “d14 CFU” value is recorded as >100,000 CFU and the “d21 CFU” value is >100,000 CFU.
Consider `CCCCCC1CCC(=O)O1` (centres unmarked) [γ-nonalactone], for which, in assay [3] (setting [11]), the “d7 CFU” value is listed as 4,100 CFU, the “d14 CFU” value is given as 5,000 CFU and the “d21 CFU” value is reported as 150 CFU. Further, the “d7 CFU” value in assay [3] (setting [8]) is >100,000 CFU. Moreover, in assay [3] (setting [9]), the “d14 CFU” value is recorded as >100,000 CFU and the “d21 CFU” value is recorded as >100,000 CFU.
In the case of `CC1CCC(=O)O1` (centres unmarked) [γ-valerolactone], the “d7 CFU” value was 3,500 CFU in assay [4] (setting [11]), 85 CFU in assay [4] (setting [12]) and 12,000 CFU in assay [4] (setting [8]). In addition, the “d14 CFU” value is 3,600 CFU in assay [4] (setting [11]), 95 CFU in assay [4] (setting [12]) and 24,500 CFU in assay [4] (setting [8]). Further, the “d21 CFU” value is listed as 385 CFU in assay [4] (setting [11]), under 10 CFU in assay [4] (setting [12]) and 2,500 CFU in assay [4] (setting [8]). The “d7 [CFU/ml]” value is 145 CFU/ml in assay [1] (10% PG + 0.004% BIT + 0.04% of lactone); >100,000 CFU/ml in assay [1] (10% PG, pH 7 + 0.04% lactone alone (Comparative 1), 25° C.); 990 CFU/ml in assay [5] (10% PG + 0.5% sodium benzoate + 0.18% of lactone); 890 CFU/ml in assay [5] (10% PG + 0.85% sodium benzoate + 0.18% of lactone); >100,000 CFU/ml in assay [5] (10% PG, pH 5 + 0.18% lactone alone (Comparative 1), P. aeruginosa, 25° C.).
